The term IC50 denotes the point on the concentration scale where inhibition reaches its midpoint.

The test system of series [1] is PP1. The note with it: cited from earlier work.
Series [2] concerns mice. The note with it: cited from earlier work.
In series [3] the test system is small crustaceans. More on the design: method as in doi:10.2216/i0031-8884-35-6S-111.1, PMID 20405925, PMID 12662108. The conditions noted are these: cited from earlier work.
The subject of series [4] is NCI H460 lung cancer cells. The arrangement: method as in PMID 18163584. The note with it: cited from earlier work.
The subject of series [5] is neuro-2A neuroblastoma cells. More on the design: method as in PMID 18163584. The note with it: cited from earlier work.
Series [6] concerns trypsin. The conditions noted are these: cited from earlier work.
For series [7], the system named is Chymotrypsin. The conditions noted are these: cited from earlier work.
The target of series [8] is T1, trypsin from porcine pancreas (Sus scrofa, UniProt P00761).
T1 construct: purchased Sigma-Aldrich T0303; host or cells: porcine pancreas
Kind of series: trypsin inhibition assay. The format is biochemical. More on the design: key: - not active; */** small/medium activity; */** small/medium activity. The conditions noted are these: class symbols.

Series [9] deals with T2, Thrombin (Bos taurus, UniProt P00735).
T2 construct: purchased Sigma-Aldrich T4648
Description: thrombin inhibition assay. The note with it: highest concentration 45.4 μg/mL. The arrangement: key: - not active; */** small/medium activity; */** small/medium activity. The format is biochemical.

Series [10] addresses α-chymotrypsin from bovine pancreas (Bos taurus, UniProt P00766). Kind of series: chymotrypsin inhibition assay. The format is biochemical. The note with it: read-out: Enzyme Inhibition (IC50 [µM]) Chymotrypsin.
Series [11] has as its target T3, elastase from porcine pancreas (Sus scrofa, UniProt P00772).
T3 construct: purchased Sigma-Aldrich E0258; host or cells: porcine pancreas
Kind of series: elastase inhibition assay. The format is biochemical. More on the design: key: - not active; */** small/medium activity; */** small/medium activity. The conditions noted are these: highest concentration 45.4 μg/mL.

Series [12] addresses T4, protein phosphatase 1 (PP1) (Oryctolagus cuniculus, UniProt P62139).
T4 construct: purchased England Biolabs, Hitchin, UK (New England Biolabs) 754S
Description: protein phosphatase 1 inhibition assay. The note with it: highest concentration 45.4 μg/mL. The arrangement: key: - not active; */** small/medium activity; */** small/medium activity. The format is biochemical.

For series [13], the system named is MCF-7 breast cancer cells. Kind of series: MTT cytotoxicity assay. The format is cell-based. The note with it: 24-h exposure, 0 to 500 μg/mL. On the procedure: For the test, two CPs were selected: Arg^2-containing CP962 and Tyr^2-containing CP985. MCF-7 breast cancer cells were seeded at 7.5 × 10^3 cells/100 μL in a 96-well plates and incubated at 37 °C, 5% CO2 for 24 h. The cells were then treated for a further 24 h with CP962 and CP985 (0 to 500 μg/mL). After 24 h, sterile-filtered 3-(4,5-dimethylthiazol-2-yl)-2,5-diphenyltetrazolium bromide solution (MTT; 1 mg/mL) was added to each well. After 4 h incubation at 37 °C in the dark, the MTT solution was removed and formazan crystals solubilized in DMSO. The plates were shaken for 20 min, in the dark, at room temperature and absorbance was measured at 560 nm (Synergy/HT, BIOTEK, Wnooski, VT, USA). For each CP, three independent experiments were carried out and each treatment consisted of six replicates per plate. Bar charts were used to represent the viability of MCF-7 cells treated with CP962 and CP985, compared to the control (i.e., untreated cells) that represented 100% cell viability.
Background: Formazan colour is commonly taken as a measure of viable cells.

Series [14] deals with human kallikrein. The arrangement: method as in PMID 20405925. The note with it: cited from earlier work.
Series [15] relates to factor XIa. The arrangement: method as in PMID 20405925. The note with it: cited from earlier work.
The test system of series [16] is plasmin. The conditions noted are these: cited from earlier work.
In series [17] the test system is zebrafish eleuthero-embryos. More on the design: method as in PMID 24561424. The note with it: genes of DNA damage recognition and repair, circadian rhythm; cited from earlier work.
The subject of series [18] is human hepatoma cell line Huh7. More on the design: method as in PMID 27428998. The note with it: cited from earlier work.
For series [19], the system named is Daphnia magna. The conditions noted are these: compared with microcystin-LR; cited from earlier work.
The test system of series [20] is isolated rat hepatocytes. The arrangement: method as in doi:10.2216/i0031-8884-35-6S-111.1. The note with it: cited from earlier work.
The target in series [21] is Elastase. The arrangement: method as in doi:10.1021/np960649a. The conditions noted are these: cited from earlier work.
Series [22] concerns the target T2, Thrombin. The arrangement: method as in doi:10.1021/np960649a. The note with it: cited from earlier work.
Series [23] has as its system papain. More on the design: method as in doi:10.1021/np960649a. The note with it: cited from earlier work.

T3 sequence (P00772 27-266): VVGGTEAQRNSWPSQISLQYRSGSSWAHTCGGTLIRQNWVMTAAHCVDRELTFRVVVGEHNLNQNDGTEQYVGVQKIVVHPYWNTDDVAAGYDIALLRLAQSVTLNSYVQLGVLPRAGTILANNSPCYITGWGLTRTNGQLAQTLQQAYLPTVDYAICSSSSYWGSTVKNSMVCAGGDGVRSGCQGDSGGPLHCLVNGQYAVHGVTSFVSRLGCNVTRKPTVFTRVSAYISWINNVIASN
T4 sequence (P62139 whole entry): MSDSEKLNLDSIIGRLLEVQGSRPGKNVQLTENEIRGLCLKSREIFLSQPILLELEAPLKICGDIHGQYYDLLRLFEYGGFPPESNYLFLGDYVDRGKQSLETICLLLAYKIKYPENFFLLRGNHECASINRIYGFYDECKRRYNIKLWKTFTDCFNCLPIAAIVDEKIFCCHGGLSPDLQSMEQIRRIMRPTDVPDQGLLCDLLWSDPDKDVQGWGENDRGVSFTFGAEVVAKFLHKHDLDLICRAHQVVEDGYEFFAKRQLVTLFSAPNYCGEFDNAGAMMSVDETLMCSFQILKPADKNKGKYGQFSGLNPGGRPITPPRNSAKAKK
T1 sequence (P00761 9-231): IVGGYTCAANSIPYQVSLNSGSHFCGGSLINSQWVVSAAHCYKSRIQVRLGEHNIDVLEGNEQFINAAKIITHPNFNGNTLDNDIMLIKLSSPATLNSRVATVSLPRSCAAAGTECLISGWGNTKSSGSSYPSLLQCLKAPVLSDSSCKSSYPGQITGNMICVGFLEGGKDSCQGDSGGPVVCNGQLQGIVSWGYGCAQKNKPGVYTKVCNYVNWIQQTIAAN

`CC[C@H](C)[C@H](NC(=O)[C@H](O)Cc1ccc(O)cc1)C(=O)N[C@@H](CCO)C(=O)N[C@@H]1C(=O)N[C@@H](CCO)C(=O)N[C@H]2CC[C@@H](O)N(C2=O)[C@@H](Cc2ccccc2)C(=O)N(C)[C@@H](Cc2ccc(O)cc2)C(=O)N[C@@H](C(C)C)C(=O)O[C@@H]1C` [Nostocyclin, [Thr+Hse+Ahp+Phe+MeTyr+Val]Hse+Ile+Hpla]: the “activity against protein phosphatases” value in series [1] (protein phosphatases) is recorded as “weak activity”. Moreover, the IC50 in [1] (read-out: Enzyme Inhibition PP1 IC50) is 64 µM. For the same compound, the “toxicity in mouse bioassay” value in series [2] is recorded as “not toxic”.

Consider Oscillapeptin J, for which the “harmful effects in mice” value in series [2] (administered intraperitoneally at concentrations up to 1000 µg/kg b.w.) was “did not induce any harmful effects”. Besides, the “acute effects in small crustaceans” value in series [3] is given as “induced acute effects”.

In the case of `CCCC(=O)N[C@@H](CCC(N)=O)C(=O)N[C@@H]1C(=O)N[C@@H](CCCNC(N)=O)C(=O)N[C@H]2CC[C@@H](O)N(C2=O)[C@@H]([C@@H](C)CC)C(=O)N(C)[C@@H](Cc2ccc(OC)c(Br)c2)C(=O)N[C@@H](C(C)C)C(=O)O[C@@H]1C` [Symplocamide A], the “cytotoxic activity to NCI H460 lung cancer cells” value in series [4] is “cytotoxic activity”. Moreover, the “cytotoxic activity to neuro-2A neuroblastoma cells” value in series [5] is “cytotoxic activity”. Also, the figures for the half-maximal inhibitory concentration (IC50) in [6] and in [7] (read-out: chymotrypsin IC50) were 80.2 µM and 0.38 µM, respectively.

On to `CCCC(=O)NC(CC(=O)O)C(=O)NC1C(=O)NC(Cc2ccc(O)cc2)C(=O)NC2CCC(O)N(C2=O)C(Cc2ccccc2)C(=O)N(C)C(Cc2ccc(O)cc2)C(=O)NC(C(C)C)C(=O)OC1C` (stereo not drawn) [CP 985, [Thr+Tyr+Ahp+Phe+MeTyr+Val]Asp+BA], for which the “Enzyme Inhibition Trypsin (activity class)” value in series [8] is recorded as “-”. Moreover, the “Enzyme Inhibition Thrombin (activity class)” value in [9] is listed as “-”. Also, the IC50 in series [10] was determined as 0.26 µM. The “Enzyme Inhibition Elastase (activity class)” value in series [11] is given as “-”. In addition, the “Enzyme Inhibition Protein Phosphatase 1 (activity class)” value in [12] is recorded as “-”. Further, the “cytotoxic effects on MCF-7 cells (MTT)” value in series [13] is “no cytotoxic effects”.

As for `CCCCCC(=O)N[C@@H](CC(=O)O)C(=O)N[C@@H]1C(=O)N[C@@H](CCCNC(=N)N)C(=O)N[C@H]2CC[C@@H](O)N(C2=O)[C@@H](Cc2ccccc2)C(=O)N(C)[C@@H](CCc2ccc(O)cc2)C(=O)N[C@@H](C(C)C)C(=O)O[C@@H]1C` [CP 1020, [Thr+Arg+Ahp+Phe+MeHty+Val]Asp+HA], the “inhibition of trypsin” value in [6] is listed as “Picomolar inhibition”. Besides, the “Enzyme Inhibition Thrombin (activity class)” value in series [9] is recorded as “-”. For the same compound, in series [14], the “activity against human kallikrein” value is recorded as “active”. The “activity against factor XIa” value in [15] was “active”. In series [7], the “activity against chymotrypsin” value is “active”. In series [3], the “acute effects in small crustaceans” value is “induced acute effects”. In series [11], the “Enzyme Inhibition Elastase (activity class)” value is listed as “-”. Further, the “Enzyme Inhibition Protein Phosphatase 1 (activity class)” value in series [12] was “-”. Further, the “activity against plasmin” value in [16] is “active”.

Turning to `CCCCCC(=O)N[C@@H](CCC(=O)O)C(=O)N[C@@H]1C(=O)N[C@@H](CCCNC(=N)N)C(=O)N[C@H]2CC[C@@H](O)N(C2=O)[C@@H](Cc2ccccc2)C(=O)N(C)[C@@H](Cc2ccc(O)cc2)C(=O)N[C@@H](C(C)C)C(=O)O[C@@H]1C` [CP1020, cyanopeptolin 1020], the “transcriptional alterations of genes in zebrafish eleuthero-embryos” value in series [17] is recorded as “led to transcriptional alterations of genes”. The “anti-inflammatory effects in Huh7” value in series [18] is “induction of anti-inflammatory effects”.

On to `CC[C@H](C)[C@@H]1NC(=O)[C@H](Cc2ccccc2)N(C)C(=O)[C@H]([C@@H](C)CC)N2C(=O)[C@H](CC[C@H]2O)NC(=O)[C@H](CCCN=C(N)N)NC(=O)[C@@H](NC(=O)[C@@H](COS(=O)(=O)O)OS(=O)(=O)O)[C@@H](C)OC1=O` [CP SS], for which the “toxicity against Daphnia magna” value in series [19] was “even higher than for microcystin-LR”. Moreover, in series [20], the “toxicity to isolated rat hepatocytes” value is recorded as “not toxic”. In addition, the “acute effects in small crustaceans” value in series [3] is reported as “induced acute effects”. In addition, the “inhibition of plasmin” value in [16] is “inhibited plasmin”.

Consider `CC[C@H](C)[C@@H]1NC(=O)[C@H](Cc2ccc(O)cc2)N(C)C(=O)[C@H]([C@@H](C)CC)N2C(=O)C(CCC2O)NC(=O)[C@H](CC(C)C)NC(=O)[C@@H]2C(OC1=O)C(C)CN2C(=O)[C@H](CCC(N)=O)NC(C)=O` (stereo partly drawn) [Nostopeptin B, [Hmp+Leu+Ahp+Ile+MeTyr+Ile]Gln+Ac], for which the “activity against trypsin” value in series [6] was “inactive”. Besides, in series [7], the “Enzyme Inhibition Chymotrypsin IC50” value was 1.6 µg/mL. Also, in series [21], the “Enzyme Inhibition Elastase IC50” value was 11.0 µg/mL. Further, the “activity against thrombin” value in [22] is “inactive”. The “activity against papain” value in series [23] was “inactive”. The “activity against plasmin” value in [16] is “inactive”.

As to `CCCC(=O)N[C@@H](CCC(N)=O)C(=O)N1CC(C)C2OC(=O)[C@H]([C@@H](C)CC)NC(=O)[C@H](Cc3ccc(O)cc3)N(C)C(=O)[C@H]([C@@H](C)CC)N3C(=O)C(CCC3O)NC(=O)[C@H](CC(C)C)NC(=O)[C@H]21` (stereo partly drawn) [Nostopeptin A, [Hmp+Leu+Ahp+Ile+MeTyr+Ile]Gln+BA], the “activity against trypsin” value in [6] is “inactive”. The “Enzyme Inhibition Chymotrypsin IC50” value in [7] was 1.4 µg/mL. Further, the “Enzyme Inhibition Elastase IC50” value in series [21] was 1.3 µg/mL. Also, the “activity against thrombin” value in series [22] is “inactive”. In addition, the “activity against papain” value in [23] was “inactive”. The “activity against plasmin” value in series [16] is “inactive”.

These data come from article PMC6070996 (Marine Drugs, 2018).
